This is an account of results in patent US9662310B2, “Cyclopropanecarboxylic acid derivative” (DAIICHI SANKYO COMPANY, LIMITED, priority 2010, dated 2017).

Structures can show the parent of a compound that is named as a salt.

Chain of TAFIa (Q96IY4 115-423): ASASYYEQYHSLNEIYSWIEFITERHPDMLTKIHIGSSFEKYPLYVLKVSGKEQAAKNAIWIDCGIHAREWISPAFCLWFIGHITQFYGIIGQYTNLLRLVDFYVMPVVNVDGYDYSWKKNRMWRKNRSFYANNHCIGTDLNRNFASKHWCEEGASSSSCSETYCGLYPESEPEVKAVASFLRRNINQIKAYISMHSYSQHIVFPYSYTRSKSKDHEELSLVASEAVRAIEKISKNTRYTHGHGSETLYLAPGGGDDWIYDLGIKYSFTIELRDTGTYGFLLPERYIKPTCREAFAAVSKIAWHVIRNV

One test addresses TAFIa (Homo sapiens (Human), UniProt Q96IY4). The experiment in a line: Determination of TAFIa enzyme inhibitory activity (FAAK substrate degradation). It is filed as biochemical. The conditions noted are these: TAFI activated with human thrombin / rabbit lung thrombomodulin; substrate FAAK, absorbance at 330 nm; di-p-toluenesulfonate; read-out: TAFIa IC50. The procedure: Determination of TAFIa Enzyme Inhibitory Activity
HEPES buffered saline (20 mM HEPES, 150 mM NaCl, pH 7.4; hereinafter, referred to as HBS) was used in the preparation of a reaction solution. To 12 μL of a 250 μg/mL TAFI solution, 30 μL of an HBS solution containing 4 U/mL human thrombin, 12 U/mL rabbit lung thrombomodulin, and 12 mM CaCl2 was added, and the mixture was gently stirred. Then, TAFI was activated at room temperature. Ten minutes later, thrombin was neutralized by the addition of 10 μL of 100 μM PPACK (thrombin inhibitor) to terminate the activation of TAFI. The formed TAFIa was stored in ice and diluted immediately before use in determination with 2050 μL of an HBS solution containing BSA (bovine serum albumin) adjusted to 0.1% in terms of the final concentration.
(2) Determination of TAFIa Inhibitory Activity
A test substance was dissolved in HBS to prepare a 10-fold dilution series of evaluation concentrations. 80 μL of the TAFIa solution and 10 μL of the test substance were added to each well of a 96-well plate and mixed by shaking for 10 minutes. 10 μL of furylacryloyl-alanyl-lysine (FAAK) adjusted to 5 mg/mL was added to each well, and the change in the absorbance of this mixed solution at 330 nm was read for 30 minutes to determine the degradation rate of the substrate.
(3) Calculation of Inhibitory Activity IC50
The degradation rate of the substrate in each well was applied to a standard curve prepared using the dilution series of the TAFIa solution to calculate TAFIa activity.
As for `NCCC[C@H]1C[C@]1(C(=O)O)c1cn(-c2ccccc2)cn1` [Example 31, (1R,2S)-2-(3-Aminopropyl)-1-(1-phenyl-1H-imidazol-4-yl)cyclopropanecarboxylic acid di-p-toluenesulfonate], the IC50 – broadly, the concentration that gives 50% inhibition – amounted to 0.015 µM.

The test is the same for the next values; noted with them: TAFI activated with human thrombin / rabbit lung thrombomodulin; substrate FAAK, absorbance at 330 nm; read-out: TAFIa IC50.
Consider `NCCC[C@H]1C[C@]1(C(=O)O)c1cn(-c2cccc3ccccc23)cn1` (relative stereo) [Example 47, (1R*,2S*)-2-(3-Aminopropyl)-1-[1-(1-naphthyl)-1H-imidazol-4-yl]cyclopropanecarboxylic acid], for which the IC50 stood at 0.054 µM.

Regarding `NCCC[C@H]1C[C@]1(C(=O)O)c1cn(-c2ccc(F)c(F)c2)cn1` (relative stereo) [Example 17, (1R*,2S*)-2-(3-Aminopropyl)-1-[1-(3,4-difluorophenyl)-1H-imidazol-4-yl]cyclopropanecarboxylic acid], the IC50 was determined as 0.061 µM. Still for that read-out and setting: the same measure for `NCCC[C@H]1C[C@]1(C(=O)O)c1cn(-c2ncccn2)cn1` (relative stereo) [Example 39, (1R*,2S*)-2-(3-Aminopropyl)-1-(1-pyrimidin-2-yl-1H-imidazol-4-yl)cyclopropanecarboxylic acid]: 0.03 µM; for `NCCC[C@H]1C[C@]1(C(=O)O)c1cn(-c2ccc3occc3c2)cn1` (relative stereo) [Example 43, (1R*,2S*)-2-(3-Aminopropyl)-1-[1-(1-benzofuran-5-yl)-1H-imidazol-4-yl]cyclopropanecarboxylic acid]: 0.026 µM.

Take `NCCC[C@H]1C[C@]1(C(=O)O)c1cn(-c2ccc(Oc3ccccc3)cc2)cn1` (relative stereo) [Example 16, (1R*,2S*)-2-(3-Aminopropyl)-1-[1-(4-phenoxyphenyl)-1H-imidazol-4-yl]cyclopropanecarboxylic acid]: the IC50 stood at 0.052 µM. For the compound `NCCC[C@H]1C[C@]1(C(=O)O)c1cn(-c2ccccc2Cl)cn1` (relative stereo) [Example 20, (1R*,2S*)-2-(3-Aminopropyl)-1-[1-(2-chlorophenyl)-1H-imidazol-4-yl]cyclopropanecarboxylic acid hydrochloride], the IC50 was determined as 0.14 µM. As to `CCc1ccc(-n2cnc([C@@]3(C(=O)O)C[C@@H]3CCCN)c2)cc1` (relative stereo) [Example 11, (1R*,2S*)-2-(3-Aminopropyl)-1-[1-(4-ethylphenyl)-1H-imidazol-4-yl]cyclopropanecarboxylic acid], the IC50 came out at 0.031 µM. Take `Cc1ccccc1-n1cnc([C@@]2(C(=O)O)C[C@@H]2CCCN)c1` (relative stereo) [Example 9, (1R*,2S*)-2-(3-Aminopropyl)-1-[1-(2-methylphenyl)-1H-imidazol-4-yl]cyclopropanecarboxylic acid]: the IC50 was greater than 0.3 µM. Still for that read-out and setting: as for `COc1ccc(-n2cnc([C@@]3(C(=O)O)C[C@@H]3CCCN)c2)nc1` (relative stereo) [Example 44, (1R*,2S*)-2-(3-Aminopropyl)-1-[1-(5-methoxypyridin-2-yl)-1H-imidazol-4-yl]cyclopropanecarboxylic acid], the figure is 0.016 µM; as for `N#Cc1ccc(-n2cnc([C@@]3(C(=O)O)C[C@@H]3CCCN)c2)cc1` (relative stereo) [Example 40, (1R*,2S*)-2-(3-Aminopropyl)-1-[1-(4-cyanophenyl)-1H-imidazol-4-yl]cyclopropanecarboxylic acid], 0.029 µM. Still for that read-out and setting: the same measure for `NCCC[C@H]1C[C@]1(C(=O)O)c1cn(-c2nccs2)cn1` (relative stereo) [Example 38, (1R*,2S*)-2-(3-Aminopropyl)-1-[1-(1,3-thiazol-2-yl)-1H-imidazol-4-yl]cyclopropanecarboxylic acid]: 0.058 µM; for `Cc1cccc(-n2cnc([C@@]3(C(=O)O)C[C@@H]3CCCN)c2)c1` (relative stereo) [Example 8, (1R*,2S*)-2-(3-Aminopropyl)-1-[1-(3-methylphenyl)-1H-imidazol-4-yl]cyclopropanecarboxylic acid]: 0.037 µM; for `NCCC[C@H]1C[C@]1(C(=O)O)c1cn(-c2cccs2)cn1` (relative stereo) [Example 37, (1R*,2S*)-2-(3-Aminopropyl)-1-[1-(2-thienyl)-1H-imidazol-4-yl]cyclopropanecarboxylic acid dihydrochloride]: 0.1 µM.

Regarding `CC[C@@H](CN)C[C@H]1C[C@]1(C(=O)O)c1cn(-c2ccccc2)cn1` [Example 62, (1R,2S)-2-[(2R)-2-(Aminomethyl)butyl]-1-(1-phenyl-1H-imidazol-4-yl)cyclopropanecarboxylic acid], the IC50 turned out to be 0.0079 µM. Same read-out and setting: the same measure for `NCCC[C@H]1C[C@]1(C(=O)O)c1cn(-c2cc3ccccc3cn2)cn1` (relative stereo) [Example 46, (1R*,2S*)-2-(3-Aminopropyl)-1-(1-isoquinolin-3-yl-1H-imidazol-4-yl)cyclopropanecarboxylic acid]: 0.016 µM. In the case of `C[C@@H](CN)C[C@H]1C[C@]1(C(=O)O)c1cn(-c2ccccc2)cn1` [Example 50, (1R,2S)-2-[(2R)-3-Amino-2-methylpropyl]-1-(1-phenyl-1H-imidazol-4-yl)cyclopropanecarboxylic acid], the IC50 stood at 0.014 µM.

For the compound `CC(C)(CN)C[C@@H]1C[C@]1(C(=O)O)c1cn(-c2ccccc2)cn1` (relative stereo) [Example 52, (1R*,2R*)-2-(3-Amino-2,2-dimethylpropyl)-1-(1-phenyl-1H-imidazol-4-yl]cyclopropanecarboxylic acid], the IC50 was greater than 0.3 µM. On the same count and under the same terms, the same measure for `NCCC[C@H]1C[C@]1(C(=O)O)c1cn(-c2ccc3ccccc3n2)cn1` (relative stereo) [Example 42, (1R*,2S*)-2-(3-Aminopropyl)-1-(1-quinolin-2-yl-1H-imidazol-4-yl)cyclopropanecarboxylic acid]: 0.058 µM. Same read-out and setting: the same measure for `CC[C@@H](CN)C[C@H]1C[C@]1(C(=O)O)c1cn(-c2ccccn2)cn1` [Example 60, (1R,2S)-2-[(2R)-2-(Aminomethyl)butyl]-1-(1-pyridin-2-yl-1H-imidazol-4-yl)cyclopropanecarboxylic acid]: 0.0083 µM; for `NCCC[C@H]1C[C@]1(C(=O)O)c1cn(-c2cccc(F)c2)cn1` (relative stereo) [Example 22, (1R*,2S*)-2-(3-Aminopropyl)-1-[1-(3-fluorophenyl)-1H-imidazol-4-yl]cyclopropanecarboxylic acid]: 0.04 µM. On the same count and under the same terms, the same measure for `CC[C@@H](CN)C[C@@H]1C[C@@]1(C(=O)O)c1cn(-c2ccccn2)cn1` [Example 61, (1S,2R)-2-[(2R)-2-(Aminomethyl)butyl]-1-(1-pyridin-2-yl-1H-imidazol-4-yl)cyclopropanecarboxylic acid]: 0.36 µM; for `CCOC(=O)[C@]1(c2cn(-c3ccc(C)cc3)cn2)C[C@@H]1CCCN` (relative stereo) [Example 26, Ethyl (1R*,2S*)-2-(3-aminopropyl)-1-[1-(4-methylphenyl)-1H-imidazol-4-yl]cyclopropanecarboxylate hydrochloride]: 10 µM. For the compound `NCCC[C@H]1C[C@]1(C(=O)O)c1cn(-c2ccc(F)cn2)cn1` (relative stereo) [Example 41, (1R*,2S*)-2-(3-Aminopropyl)-1-[1-(5-fluoropyridin-2-yl)-1H-imidazol-4-yl]cyclopropanecarboxylic acid], the IC50 came to 0.019 µM. As to `CC(CN)C[C@H]1C[C@]1(C(=O)O)c1cn(-c2ccccc2)cn1` (relative stereo) [Example 32, (1R*,2S*)-2-(3-Amino-2-methylpropyl)-1-(1-phenyl-1H-imidazol-4-yl)cyclopropanecarboxylic acid], the IC50 stood at 0.035 µM. The same measure, in the same setting: the same measure for `Cc1ccc(-n2cnc([C@@]3(C(=O)O)C[C@@H]3CC(C)CN)c2)cc1` (relative stereo) [Example 33, (1R*,2S*)-2-(3-Amino-2-methylpropyl)-1-[1-(4-methylphenyl)-1H-imidazol-4-yl]cyclopropanecarboxylic acid]: 0.039 µM.

The test is the same for the next values; noted with them: TAFIa IC50.
`CC(C)(C)CCn1cnc(C2(C(=O)O)CC2CCCN)c1` (single isomer, unassigned) [Example 2, (1R*,2R*)-2-(3-Aminopropyl)-1-[1-(3,3-dimethylbutyl)-1H-imidazol-4-yl]cyclopropanecarboxylic acid] had a concentration for half-maximal inhibition (IC50) of 0.42 µM. The same measure, in the same setting: the same measure for `CC(C)(C)CCn1cnc(C2(C(=O)O)CC2CCCN)c1` (single isomer, unassigned) [Example 1, (1R*,2S*)-2-(3-Aminopropyl)-1-[1-(3,3-dimethylbutyl)-1H-imidazol-4-yl]cyclopropanecarboxylic acid]: 0.0087 µM.

The test is the same for the next values; noted with them: read-out: TAFIa IC50.
For the compound `CCC[C@@H](CN)C[C@@H]1C[C@@]1(C(=O)O)c1cn(-c2ccccn2)cn1` [Example 67, (1S,2R)-2-[(2R)-2-(Aminomethyl)pentyl]-1-(1-pyridin-2-yl-1H-imidazol-4-yl)cyclopropanecarboxylic acid], the IC50 is greater than 0.1 µM. Still for that read-out and setting: the same measure for `CC[C@H](CN)C[C@H]1C[C@]1(C(=O)O)c1cn(-c2ccccc2)cn1` [Example 63, (1R,2S)-2-[(25)-2-(Aminomethyl)butyl]-1-(1-phenyl-1H-imidazol-4-yl)cyclopropanecarboxylic acid]: 0.012 µM.
